From article PMC8448983 (European journal of medicinal chemistry, 2021) come the findings set out here.

For orientation: Ki means a dissociation constant, usually derived from enzyme kinetics or from competition with a known ligand. As a reminder, the inhibition is the share of the control response that was lost under treatment.

Read-outs that look alike come from different tables or passages of the source. Marks after values point to notes of the source that are not given here.

Experiment [1] addresses T1, human A1 adenosine receptor (Homo sapiens, UniProt P30542).
T1 sequence (P30542 1-326): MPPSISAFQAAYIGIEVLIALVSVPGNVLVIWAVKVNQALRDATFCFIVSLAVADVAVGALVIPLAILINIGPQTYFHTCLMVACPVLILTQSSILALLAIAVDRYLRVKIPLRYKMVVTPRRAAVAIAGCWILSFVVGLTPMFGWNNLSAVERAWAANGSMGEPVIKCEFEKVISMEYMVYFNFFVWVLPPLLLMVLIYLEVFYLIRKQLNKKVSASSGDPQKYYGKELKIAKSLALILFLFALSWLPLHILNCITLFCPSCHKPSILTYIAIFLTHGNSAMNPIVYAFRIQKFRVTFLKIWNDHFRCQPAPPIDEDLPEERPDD
The experiment in a line: Radioligand binding, HEK293 cells expressing human A1 receptor. To be noted: for percent of inhibition, A1 AR: 10 μM compound.

For experiment [2], the target named is T2, human A3 adenosine receptor (Homo sapiens, UniProt P0DMS8).
T2 sequence (P0DMS8 1-318): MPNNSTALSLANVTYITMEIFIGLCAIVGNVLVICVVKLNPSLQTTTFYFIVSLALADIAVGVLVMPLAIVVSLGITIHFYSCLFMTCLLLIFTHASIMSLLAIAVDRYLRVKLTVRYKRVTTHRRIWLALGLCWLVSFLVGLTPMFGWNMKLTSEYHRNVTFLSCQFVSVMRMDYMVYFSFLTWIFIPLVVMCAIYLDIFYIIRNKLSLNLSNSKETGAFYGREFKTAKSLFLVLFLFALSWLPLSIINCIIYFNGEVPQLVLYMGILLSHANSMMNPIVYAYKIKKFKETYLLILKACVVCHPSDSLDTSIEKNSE
The experiment in a line: Radioligand binding, HEK293 cells expressing human A3 receptor. To be noted: for activity class (active / inactive) in SAR and selectivity analysis / receptor selectivity class: compounds 33–52, NIH binding data; for Ki: read-out: Ki, A3 AR, [125I]-N6-(4-amino-3-iodobenzyl)adenosine-5′-N-methyluronamide; for Ki / percent of inhibition, A3 AR: NIH laboratory, HEK293; for percent of inhibition, A3 AR: 10 μM compound, agonist radioligand.

The target of experiment [3] is T3, human A2A adenosine receptor (Homo sapiens, UniProt P29274). Put plainly: Radioligand binding, HEK293 cells expressing human A2A receptor. To be noted: for percent of inhibition, A2A AR: 10 μM compound, NIH laboratory, agonist radioligand.
T3 sequence (P29274 whole entry): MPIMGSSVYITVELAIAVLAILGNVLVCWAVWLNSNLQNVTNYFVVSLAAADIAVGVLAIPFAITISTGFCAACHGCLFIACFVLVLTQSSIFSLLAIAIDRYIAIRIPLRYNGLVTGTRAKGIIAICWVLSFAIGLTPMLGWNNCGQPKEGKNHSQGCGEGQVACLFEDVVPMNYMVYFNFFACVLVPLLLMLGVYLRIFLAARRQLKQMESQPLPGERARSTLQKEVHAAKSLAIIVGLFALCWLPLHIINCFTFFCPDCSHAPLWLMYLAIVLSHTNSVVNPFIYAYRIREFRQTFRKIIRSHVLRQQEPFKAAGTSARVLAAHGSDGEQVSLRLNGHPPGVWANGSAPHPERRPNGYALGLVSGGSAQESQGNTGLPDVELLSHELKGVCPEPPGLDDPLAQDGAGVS
Experiment [4] has as its system human blood platelets. Put plainly: ADP-induced platelet aggregation in platelet-rich plasma. The following applies: 10 μM ADP, mean ± SD, n = 6–9. The class given is cell-based.
Experiment [5] has as its target T3, human A2A adenosine receptor. The following applies: 10 μM compound; USEF; HeLa-A2A membranes; 3 nM [3H]-ZM241385.
For experiment [6], the target named is T4, human A2B adenosine receptor (Homo sapiens, UniProt P29275).
T4 sequence (P29275 1-332): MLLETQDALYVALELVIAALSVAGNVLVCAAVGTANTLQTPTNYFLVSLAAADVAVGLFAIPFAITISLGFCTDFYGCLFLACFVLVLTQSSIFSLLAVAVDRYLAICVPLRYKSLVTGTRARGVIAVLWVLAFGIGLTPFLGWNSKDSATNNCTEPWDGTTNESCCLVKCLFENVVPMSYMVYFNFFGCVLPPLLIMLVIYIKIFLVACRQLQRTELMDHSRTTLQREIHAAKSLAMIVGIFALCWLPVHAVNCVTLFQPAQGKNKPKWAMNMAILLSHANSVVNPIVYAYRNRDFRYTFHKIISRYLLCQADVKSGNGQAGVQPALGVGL
To be noted: USEF, HEK-A2B membranes, 25 nM [3H]-DPCPX; for percent of inhibition, A2B AR: 10 μM compound.

Experiment [7] addresses T2, human A3 adenosine receptor. To be noted: for percent of inhibition, A3 AR: 10 μM compound, USEF, HeLa-A3 membranes, 10 nM [3H]-NECA.
Experiment [8] addresses T1, human A1 adenosine receptor. To be noted: 10 μM compound; USEF; CHO-A1 membranes; 1 nM [3H]-DPCPX.
[9] abbreviates: NIH laboratory, HEK293, [3H]-N6-R-phenylisopropyladenosine.

As to “2-Ethynyl-(1,12-dicarba-closo-dodecaboran-1-yl)adenosine [Compound 41]”, in experiment [1] (read-out: Ki, A1 AR, NIH laboratory, HEK293, [3H]-N6-R-phenylisopropyladenosine), the Ki was 2.87 ± 1.69 µM. In addition, in experiment [2], the “activity class (active / inactive) in SAR and selectivity analysis” value was “active”; the receptor selectivity class result is “not selective”; the Ki came to 0.206 ± 0.031 µM. In addition, the Ki in experiment [3] (read-out: Ki, A2A AR, NIH laboratory, [3H]-2-[p-(2-carboxyethyl)phenyl-ethylamino]-5′-N-ethylcarboxamidoadenosine) was 3.07 ± 0.53 µM.

Turning to “2-ethyl-(1,12-dicarba-closo-dodecaboran-2-yl)arabinoadenosine [Compound 49]”, the “percent of inhibition, A1 AR” value in experiment [1] (setting [9]) turned out to be 27 ± 9%. Besides, the “percent of inhibition, A3 AR” value in experiment [2] is reported as 25 ± 8%. The “percent of inhibition, A2A AR” value in experiment [3] worked out at 12 ± 14%.

In the case of “2-ethynyl-(1,12-dicarba-closo-dodecaboran-2-yl) arabinoadenosine [Compound 47]”, the “percent of inhibition, A1 AR” value in experiment [1] (setting [9]) is reported as 15 ± 1%. Further, in experiment [2], the “activity class (active / inactive) in SAR and selectivity analysis” value is “active”; the receptor selectivity class result is reported as “A3 selective”; the Ki was determined as 4.39 ± 2.02 µM. Moreover, in experiment [3], the “percent of inhibition, A2A AR” value is 17 ± 2.7%.

“2′-O-(1,12-dicarba-closo-dodecaboran-1-yl)propyleneoxymethyl]-adenosine [Compound 37]”: the “area under the aggregation curve, ADP-induced platelet aggregation” value (shortened to “area under the aggregation curve”) was 661.1 ± 61.3 arbitrary units in experiment [4] (10 μM compound) and 616.0 ± 24.7 arbitrary units in experiment [4] (50 μM compound). Moreover, the “percent of inhibition, A1 AR” value in experiment [1] (setting [9]) amounted to 6 ± 10%. Besides, the “percent of inhibition, A3 AR” value in experiment [2] is listed as 19 ± 14%. Also, in experiment [3], the “percent of inhibition, A2A AR” value is 7 ± 2%.

Take “8-[2-(1,12-dicarba-closo-dodecaboran-1-yl)ethyl]-adenosine [Compound 35]”: the “area under the aggregation curve” value in experiment [4] (10 μM compound) amounted to 665.7 ± 86.8 arbitrary units; in experiment [4] (50 μM compound) it was 682.3 ± 17.4 arbitrary units. Moreover, in experiment [1] (setting [9]), the “percent of inhibition, A1 AR” value was 16 ± 7%. The “percent of inhibition, A3 AR” value in experiment [2] stood at 9 ± 13%. The “activity class (active / inactive) in SAR and selectivity analysis” value in experiment [2] is “inactive”. The “percent of inhibition, A2A AR” value in experiment [3] worked out at 18 ± 4%.

On to “8-[2-(1,12-dicarba-closo-dodecaboran-1-yl)ethynyl] adenosine [Compound 33]”, for which the “percent of inhibition, A1 AR” value in experiment [1] (setting [9]) was determined as 29 ± 7%. In experiment [2], the “percent of inhibition, A3 AR” value is given as 48 ± 12%; the “activity class (active / inactive) in SAR and selectivity analysis” value is “inactive”. Moreover, the “percent of inhibition, A2A AR” value in experiment [3] came out at 17.1 ± 8%.

For the molecule “8-[2-(1,12-dicarba-closo-dodecaboran-1-yl)ethynyl]-2′-deoxyadenosine [Compound 43]”, the “percent of inhibition, A1 AR” value in experiment [1] (setting [9]) amounted to 6 ± 6%. For the same molecule, in experiment [2], the “percent of inhibition, A3 AR” value came out at 1 ± 8%; the “activity class (active / inactive) in SAR and selectivity analysis” value was “inactive”. For the same molecule, in experiment [3], the “percent of inhibition, A2A AR” value is on record as 10 ± 5%.

For `Nc1ncnc2c1nc(C#Cc1ccccc1)n2[C@@H]1O[C@H](CO)[C@@H](O)[C@H]1O` [Compound 34, 8-(2-phenylethynyl)adenosine], in experiment [1] (read-out: percent of inhibition, A1 AR), the inhibition at 10 µM was determined as 11 ± 3%. Further, in experiment [2], the “activity class (active / inactive) in SAR and selectivity analysis” value was “active”; the receptor selectivity class entry is recorded as “A3 selective”.

For the molecule `Nc1ncnc2c1nc(CCc1ccccc1)n2[C@@H]1O[C@H](CO)[C@@H](O)[C@H]1O` [Compound 36, 8-(2-phenylethyl)adenosine], the “activity class (active / inactive) in SAR and selectivity analysis” value in experiment [2] was “inactive”.

Turning to `Nc1nc(C#Cc2ccccc2)nc2c1ncn2[C@@H]1O[C@H](CO)[C@@H](O)[C@H]1O` [Compound 42, 2-Phenylethynyladenosine], in experiment [2], the “activity class (active / inactive) in SAR and selectivity analysis” value is “active”; the receptor selectivity class result is given as “not selective”.

`Nc1ncnc2c1nc(C#Cc1ccccc1)n2[C@H]1C[C@H](O)[C@@H](CO)O1` [Compound 44]: in experiment [2], the “activity class (active / inactive) in SAR and selectivity analysis” value was “active”; the receptor selectivity class result is recorded as “not selective”.

For the molecule `Nc1nc(CCc2ccccc2)nc2c1ncn2[C@@H]1O[C@H](CO)[C@@H](O)[C@H]1O` [Compound 46], in experiment [2], the “activity class (active / inactive) in SAR and selectivity analysis” value was “inactive”; the receptor selectivity class entry is “not selective”.

Take `Nc1nc(C#Cc2ccccc2)nc2c1ncn2[C@@H]1O[C@H](CO)[C@@H](O)[C@@H]1O` [Compound 48]: in experiment [2], the “activity class (active / inactive) in SAR and selectivity analysis” value is reported as “active”; the receptor selectivity class entry is “A3 selective”.

With `Nc1nc(CCc2ccccc2)nc2c1ncn2[C@@H]1O[C@H](CO)[C@@H](O)[C@@H]1O` [Compound 50], the “activity class (active / inactive) in SAR and selectivity analysis” value in experiment [2] was “inactive”.

For `Nc1ncnc2c1nc(CCc1ccccc1)n2[C@H]1C[C@H](O)[C@@H](CO)O1` [Compound 52], in experiment [2], the “activity class (active / inactive) in SAR and selectivity analysis” value was “inactive”.

Turning to “N^6-(3-phenylpropyl)-2-chloro-2′-deoxyadenosine [Compound 28]”, the “percent of inhibition, A2A AR” value in experiment [5] came out at 14 ± 2 %^a. Besides, in experiment [6], the “percent of inhibition, A2B AR” value is 1 ± 1 %^a.

As for “N^6-[3-(1,12-Dicarba-closo-dodecaboran-1-yl)propyl]adenosine [Compound 39]”, the “area under the aggregation curve” value in experiment [4] (10 μM compound) is 678.4 ± 55.7 arbitrary units; in experiment [4] (50 μM compound) it was 658.0 ± 46.8 arbitrary units. Besides, in experiment [1] (setting [9]), the “percent of inhibition, A1 AR” value turned out to be 32 ± 1%. The “percent of inhibition, A3 AR” value in experiment [2] is listed as 0 ± 12%. In experiment [3], the “percent of inhibition, A2A AR” value is listed as 0 ± 1%.

For the molecule “N^6-[3-(1,12-dicarba-closo-dodecaboran-1-yl)propyl]-2-chloro-2′-deoxyadenosine [Compound 27]”, the “percent of inhibition, A3 AR” value in experiment [7] was 10 ± 3 %^a. The “percent of inhibition, A1 AR” value in experiment [8] came out at 25 ± 1 %^a. The “percent of inhibition, A2A AR” value in experiment [5] was 1 ± 1 %^a. Besides, the Ki in experiment [6] (read-out: Ki, A2B AR) worked out at 4.67 µM.

On to “N^6-[3-(1,12-dicarba-closo-dodecaboran-1-yl)propyl]-2-chloroadenosine [Compound 23]”, for which the “area under the aggregation curve” value in experiment [4] (10 μM compound) was 715.3 ± 85.8 arbitrary units; in experiment [4] (50 μM compound), 657.0 ± 67.2 arbitrary units. Also, the “percent of inhibition, A2A AR” value in experiment [5] amounted to 1 ± 1 %^a.

Regarding “N^6-[(1,12-dicarba-closo-dodecaboran-1-yl)prop-3-yl]-5′-ethylcarbamoyl adenosine [Compound 17]”, the “area under the aggregation curve” value in experiment [4] (10 μM compound) came out at 646.2 ± 58.6 arbitrary units; in experiment [4] (50 μM compound), 639.5 ± 64.7 arbitrary units. In addition, in experiment [7], the “percent of inhibition, A3 AR” value amounted to 34 ± 4 %^a. Besides, the “activity class (active / inactive) in selectivity analysis” value in experiment [7] (N6 carborane derivatives, USEF binding data) was “inactive”. In addition, in experiment [8], the “percent of inhibition, A1 AR” value was 18 ± 3 %^a. Further, the “percent of inhibition, A2A AR” value in experiment [5] stood at 1 ± 1 %^a. In addition, the “percent of inhibition, A2B AR” value in experiment [6] is 4 ± 4 %^a.
